Assay results taken from patent US10835519B2, “Targeting metabolic adaptive responses to chemotherapy” (University of Cincinnati, priority 2012, dated 2020).
“Also recorded” adds a separate entry of the source.

How the values were obtained:
[1] = test system: BCR-ABL+ FL5.12 cells; assay: Viability by propidium iodide exclusion (flow cytometer); format: cell-based; settings: for viability (cell death): 22 hours, FIG. 12
Experimental: BCR-ABL^+ FL5.12 cells were cultured in cytokine-free medium containing either 0.2 mM glucose (“low glucose”; -Glucose) or 10 mM glucose (“high glucose”, +Glucose) for 48 hours. The mean viability and standard deviation were determined by propidium iodide exclusion in a FACSAria flow cytometer (BD). Cells were washed three times in PBS and resuspended at a concentration of 2×10^5 per mL in media supplemented with 2 μg/mL of propidium iodide (Molecular Probes) prior to analysis. For the viability analysis of BCL-ABL^+ primary bone marrow cells, viability was measured after withdrawal from cytokines for five (5) days in high glucose or low glucose media. Methods used for culturing cells and measuring viability are described above and below.
Fatty acid oxidation inhibition via ST247, an inverse agonist that inhibits PPARδ activity, was examined. BCR-ABL-expressing FL5.12 cells were pretreated with vehicle control or 20 nM rapamycin overnight. Cells were cultured for 22 hours in complete medium lacking IL-3 and glucose, supplemented with the indicated treatments (vehicle, 0.5 μM ST247, 1 μM ST247, or 5 μM ST247). Viability was measured in three technical replicates by propidium iodide (PI) exclusion using a flow cytometer. […] The effect was dose dependent, with lesser concentrations resulting in little effect in rapamycin-treated cells.
In order to investigate the metabolic switch as glycolysis declines, BCR-ABL-expressing FL5.12 cells were pretreated with vehicle control or 20 nM rapamycin overnight. Cells were then cultured in complete medium lacking IL-3 with 100 μM glucose (a limiting concentration) for 46 hours, supplemented with either vehicle control or 5 μM ST247. Viability was measured in three technical replicates by PI exclusion in a flow cytometer.
BCR-ABL-expressing FL5.12 cells were pretreated with vehicle control or 20 nM rapamycin overnight. Cells were then cultured in complete medium lacking IL-3 with 50 μM glucose for 48 hours, supplemented with the indicated treatments (vehicle, 1 μM GW6471, 10 μM GW7647, or 5 μM ST247). Viability was measured in three technical replicates by PI exclusion in a flow cytometer.

[2] = test system: BCR-ABL+ K562 cells; assay: Viability by propidium iodide exclusion; format: cell-based, human; settings: full glucose; FIG. 10; not as strong as S6K1 knockdown with etomoxir
[3] = test system: BCR-ABL+ FL5.12 cells; assay: Fatty acid oxidation, 3H release from 3H-palmitate; format: cell-based, murine; settings: etomoxir, upon S6K1 inactivation; FIG. 7A
Experimental: (§1) The rate of ^3H release from ^3H-palmitate was used to measure FAO. The ^3H-palmitate was adopted from Djouadi, et al., (2003) Mol Genet Metab 78:112-8. Between approximately 0.5×10^6 and approximately 1.0×10^6 cells were washed with PBS, then cultured with approximately 400 μL of (9,10-^3H) palmitate:albumin for approximately 4 hours at approximately 37 degrees C. After incubation, approximately 10% TCA was added to each tube and centrifuged at approximately 3300 rpm for approximately 10 min at approximately 4 degrees C. before being mixed with 6N NaOH and applied to ion-exchange columns. Each column was washed with approximately 1 mL of water and the eluates were counted using a scintillation counter.

[4] = test system: BCR-ABL+ KBM7 cells; assay: Fatty acid oxidation, 3H release from 3H-palmitate; format: cell-based, human; settings: etomoxir and/or rapamycin; FIG. 7C
Experimental: as §1

[5] = test system: BCR-ABL+ K562 cells; assay: Fatty acid oxidation, 3H release from 3H-palmitate; format: cell-based, human; settings: etomoxir and/or rapamycin; FIG. 7B
Experimental: as §1

[6] = test system: S6K1; assay: Ribosomal protein S6 phosphorylation as readout of S6K1 activity; format: cell-based; settings: imatinib 1.5 μM
Experimental: In particular, vector control and BCR-ABL^+ cells were cultured for three (3) hours in the absence of growth factor, then restimulated for thirty (30) minutes for analysis of S6K1 phosphorylation at T389 and the phosphorylation of ribosomal protein S6 at serines 235/236.
Small ribosomal protein S6 (pS^6) phosphorylation was measured.

[7] = test system: Akt; assay: Akt phosphorylation immunoblot in BCR-ABL+ FL5.12 cells; format: cell-based, murine; settings: rebound after S6K1 knockdown; FIG. 5A
Experimental: Although Akt activation has been previously associated with glucose-dependent survival (see FIG. 4A), rebound activation of Akt was tested for association with increased survival in BCR-ABL^+ cells cultured under low glucose conditions. […] Inactivation of mTORC1 and S6K1 can trigger increases in the activity of Akt and other upstream kinases, due to knockdown or loss of feedback regulation.
Rapamycin treatment can induce rebound Akt activation in short-term cultures, but long term treatment can suppress Akt activation by the upstream kinase mTORC2. See, e.g., Sarbassov, et al., (2006) Mol Cell 22:159-68.

CCOC(=O)[C@@]1(CCCCCCOc2ccc(Cl)cc2)CO1 [etomoxir]
apoptosis, combination with S6K1 knockdown ([1]; 200 μM etomoxir plus S6K1 knockdown, full glucose, approximately 48 hours, FIG. 9A): induced significant apoptosis | cytotoxicity as a single agent ([1]; 200 μM etomoxir, full glucose, approximately 48 hours, FIG. 9A): mild cytotoxic effect | cell death in response to etomoxir, dose curve with S6K1 knockdown ([1]; etomoxir about 200 μM to about 300 μM, full glucose, FIG. 9B): enhanced cell death | cell survival mediated by AICAR ([1]; low glucose, etomoxir added, FIG. 8B): prevented cell survival | survival of S6K1 knockdown cells ([1]; low glucose, presence of etomoxir, FIG. 8A, 8B): prevented the survival; also recorded: prevented cell survival | cytotoxicity of etomoxir in the presence of rapamycin [2]: enhanced cytotoxicity | 3H release from 3H-palmitate (FAO) [3]: reduced ^3H release | 3H release from 3H-palmitate (FAO) [4]: reduced ^3H release | 3H release from 3H-palmitate (FAO) [5]: reduced ^3H release

Cc1ccc(NC(=O)c2ccc(CN3CCN(C)CC3)cc2)cc1Nc1nccc(-c2cccnc2)n1 [imatinib]
S6K1 activity (phosphorylation of pS6) [6]: reduced S6K1 activity

Cn1c(=O)n(-c2ccc(C(C)(C)C#N)cc2)c2c3cc(-c4cnc5ccccc5c4)ccc3ncc21 [BEZ235]
Akt activation (phosphorylation at serine 473) [7]: prevented the increase in Akt activation | glucose-independent survival ([1]; S6K1 inactivation (knockdown) plus BEZ235, low glucose, FIG. 5B): did not prevent glucose-independent survival

CCCCCCNc1ccc(NS(=O)(=O)c2ccsc2C(=O)OC)c(OC)c1 [ST247]
viability (cell death) ([1]; 5 μM ST247, 20 nM rapamycin pretreated overnight, no IL-3, no glucose): triggered substantial cell death | viability (restoring apoptosis) ([1]; 5 μM ST247, 20 nM rapamycin pretreated, 50 μM glucose, 48 hours, FIG. 14): restoring apoptosis | viability (survival advantage) ([1]; 5 μM ST247, 20 nM rapamycin pretreated, 100 μM glucose, 46 hours, FIG. 13): counteracted the survival advantage induced by rapamycin | viability (cell death) ([1]; lesser concentrations of ST247 (0.5 μM, 1 μM), rapamycin-treated, no glucose): little effect

CC(C)(Sc1ccc(CCN(CCCCC2CCCCC2)C(=O)NC2CCCCC2)cc1)C(=O)O [GW7647]
viability ([1]; 10 μM GW7647, vehicle-control treated cells, 50 μM glucose, 48 hours, FIG. 14): undesired increase in viability

CCC(=O)NC[C@H](Cc1ccc(OCCc2nc(-c3ccccc3)oc2C)cc1)N/C(C)=C\C(=O)c1ccc(C(F)(F)F)cc1 [GW6471, N-((2S)-2-(((1Z)-1-Methyl-3-oxo-3-(4-(trifluoromethyl)phenyl)prop-1-enyl)amino)-3-(4-(2-(5-methyl-2-phenyl-1,3-oxazol-4-yl)ethoxy)phenyl)propyl)propanamide]
viability (restoring apoptosis) ([1]; 1 μM GW6471, 20 nM rapamycin pretreated, 50 μM glucose, 48 hours, FIG. 14): somewhat effective in restoring apoptosis

NC(=O)c1ncn([C@@H]2O[C@H](CO)[C@@H](O)[C@H]2O)c1N [AICAR, 5-aminoimidazole-4-carboxamide 1-β-D-ribofuranoside]
glucose-independent survival ([1]; AICAR, low glucose, level similar to S6K1 knockdown, FIG. 8B): triggered glucose-independent survival
